# Experimental data taken from US20080249129A1, “Compositions and Methods for Treatment of Protein Misfolding Diseases” (priority 2004, published 2008).
# Where a name gives a salt, the structure may show the parent alone. Read-outs that look alike come from different tables or passages of the source. Peptide text beside a SMILES is read from it.
# Experiments:
# Type in all cases: cell-based
# [1] = system: yeast expressing two copies of alpha synuclein
# Description: (§1) An exemplary aS-expressing yeast cell for use in a growth rescue screen described herein is yeast expressing two copies of aS, as described in Outeiro et al. (2003) Science 302:1772. An exemplary htt-expressing strain for use in a growth rescue screen described herein is yeast expressing a fusion protein comprising a FLAG tag and an expanded htt polyQ (103) domain, as described in Meriin et al. (2002) J. Cell Biol. 158:591.
# (§2) Phenotype MicroArray™ (Biolog, Inc., Hayward, Calif.) was employed to evaluate the effects of various compounds in yeast expressing one or two copies of alpha synuclein.
# [2] = system: yeast expressing a toxic amount and form of huntingtin
# Description: as §1
# (§3) Phenotype MicroArray™ (Biolog, Inc., Hayward, Calif.) was employed to evaluate the ability of various compounds to rescue viability in yeast expressing a toxic amount and form of huntingtin. […] Bioscreen C MBR (Labsystem Corp, Helsinki, Finland) was also used to evaluate the effects of the clioquinols.
# [3] = system: yeast expressing a toxic amount and form of huntingtin; remark: listed apart in the source
# Description: For example, the Bioscreen-C system (Labsystem Corp, Helsinki, Finland) permits the growth of up to 200 cell cultures at the same time, under different conditions. Growth rates are monitored optically, recorded automatically, and stored as digital files for further manipulations. […] Mutants and chemicals from a variety of sources will be tested.
# as §3
# [4] = system: yeast expressing one copy of alpha synuclein
# Description: as §2
# [5] = yeast expressing toxic huntingtin, Phenotype MicroArray
# [6] = yeast expressing toxic huntingtin, Bioscreen C MBR
# [7] = yeast expressing one copy of alpha synuclein, Phenotype MicroArray
# [8] = yeast expressing two copies of alpha synuclein, Phenotype MicroArray
compound,measurement,setting,value
"CCC(O)C(=O)O (racemic) [D,L-a-hydroxy-butyric acid]",effect on alpha synuclein-mediated toxicity,[1],suppressors of alpha synuclein-mediated toxicity
"Cc1ccc2c(Cl)cc(Cl)c(O)c2n1 [5,7-Dichloro-8-hydroxy-quinaldine]",effect on huntingtin-mediated toxicity (rescue of viability),[2]; [5],suppressors of huntingtin-mediated toxicity
same,effect on huntingtin-mediated toxicity,[3]; [6],alleviated huntingtin-mediated toxicity
O=[N+]([O-])c1ccc(O)c2ncccc12 [8-Hydroxy-5-nitroquinoline],effect on huntingtin-mediated toxicity (rescue of viability),[2]; [5],suppressors of huntingtin-mediated toxicity
same,effect on huntingtin-mediated toxicity,[3]; [6],alleviated huntingtin-mediated toxicity
Oc1cccc2cccnc12 [8-Hydroxyquinoline],effect on huntingtin-mediated toxicity (rescue of viability),[2],suppressors of huntingtin-mediated toxicity
same,effect on huntingtin-mediated toxicity,[3],alleviated huntingtin-mediated toxicity
CCCCCCCCCCCCC/C=C/[C@@H](O)[C@@H](N)CO [D-Sphingosine],effect on alpha synuclein-mediated toxicity,[4]; [7],enhancers of alpha synuclein-mediated toxicity
CC[C@H](C)[C@H](N)C(=O)O [L-Isoleucine],effect on alpha synuclein-mediated toxicity,[4]; [7],enhancers of alpha synuclein-mediated toxicity
CSCC[C@H](NC(=O)[C@@H](N)Cc1ccccc1)C(=O)O [Phe-Met] (H-Phe-Met-OH),effect on alpha synuclein-mediated toxicity,[4]; [7],enhancers of alpha synuclein-mediated toxicity
COc1ccc(C[C@H]2NC[C@H](O)[C@H]2OC(C)=O)cc1 [anisomycin],effect on alpha synuclein-mediated toxicity,[4]; [7],enhancers of alpha synuclein-mediated toxicity
CC1=C(C(=O)Nc2ccccc2)SCCO1 [carboxin],effect on alpha synuclein-mediated toxicity,[4]; [7],enhancers of alpha synuclein-mediated toxicity
COc1ccc2c(c[n+](C)c3c4cc5c(cc4ccc23)OCO5)c1OC [chelerythrine],effect on alpha synuclein-mediated toxicity,[4]; [7],enhancers of alpha synuclein-mediated toxicity
CN(C)C(=O)/N=N/C(=O)N(C)C [diamide],effect on alpha synuclein-mediated toxicity,[4]; [7],enhancers of alpha synuclein-mediated toxicity
OP(O)(=S)S [dithiophosphate],effect on alpha synuclein-mediated toxicity,[4]; [7],enhancers of alpha synuclein-mediated toxicity
CCCCCCCCCCCC[N+](C)(C)C.[Br-] [dodecyltrimethyl ammonium bromide],effect on alpha synuclein-mediated toxicity,[4]; [7],enhancers of alpha synuclein-mediated toxicity
N=C(N)N [guanidine hydrochloride],effect on huntingtin-mediated toxicity (rescue of viability),[2]; [5],suppressors of huntingtin-mediated toxicity
Oc1c(Cl)cc(Cl)c(Cl)c1Cc1c(O)c(Cl)cc(Cl)c1Cl [hexachlorophene],effect on alpha synuclein-mediated toxicity,[1],suppressors of alpha synuclein-mediated toxicity
CC(C)Cc1ccc(C(C)C(=O)O)cc1 (stereo not drawn) [ibuprofen],effect on alpha synuclein-mediated toxicity,[1],suppressors of alpha synuclein-mediated toxicity
Cc1cccc(O)c1 [m-cresol],effect on alpha synuclein-mediated toxicity,[1]; [8],suppressors of alpha synuclein-mediated toxicity
same,effect on huntingtin-mediated toxicity (rescue of viability),[2]; [5],suppressors of huntingtin-mediated toxicity
CC[C@@]1([C@@H]2O[C@@H]([C@H]3O[C@@](O)(CO)[C@H](C)C[C@@H]3C)C[C@@H]2C)CC[C@H]([C@]2(C)CC[C@]3(C[C@H](O)[C@@H](C)[C@@H]([C@@H](C)[C@@H](OC)[C@H](C)C(=O)O)O3)O2)O1 [monensin],effect on alpha synuclein-mediated toxicity,[4]; [7],enhancers of alpha synuclein-mediated toxicity
CC(Cc1ccc(O)c(O)c1)C(C)Cc1ccc(O)c(O)c1 (stereo not drawn) [nordihydroguaiaretic acid],effect on alpha synuclein-mediated toxicity,[1],suppressors of alpha synuclein-mediated toxicity
same,effect on huntingtin-mediated toxicity (rescue of viability),[2],suppressors of huntingtin-mediated toxicity
CC1=C(C(=O)Nc2ccccc2)S(=O)(=O)CCO1 [oxycarboxin],effect on alpha synuclein-mediated toxicity,[4]; [7],enhancers of alpha synuclein-mediated toxicity
CC1=CC(=O)c2c(O)cccc2C1=O [plumbagin],effect on alpha synuclein-mediated toxicity,[4]; [7],enhancers of alpha synuclein-mediated toxicity
"O=C([O-])c1ccccc1.[Na+] [sodium benzoate pH 5.2, sodium benzoate]",effect on alpha synuclein-mediated toxicity,[4]; [7],enhancers of alpha synuclein-mediated toxicity
O=[Si]([O-])[O-].[Na+].[Na+] [sodium metasilicate],effect on alpha synuclein-mediated toxicity,[1]; [8],suppressors of alpha synuclein-mediated toxicity
O=S([O-])([O-])=S.[Na+].[Na+] [sodium thiosulfate],effect on alpha synuclein-mediated toxicity,[4],enhancers of alpha synuclein-mediated toxicity
OP(O)(O)=S [thiophosphate],effect on alpha synuclein-mediated toxicity,[4]; [7],enhancers of alpha synuclein-mediated toxicity
ruthenium red,effect on alpha synuclein-mediated toxicity,[1]; [8],suppressors of alpha synuclein-mediated toxicity
sodium metavanadate,effect on alpha synuclein-mediated toxicity,[1],suppressors of alpha synuclein-mediated toxicity
sodium phosphate [sodium phosphate pH 7],effect on alpha synuclein-mediated toxicity,[4],enhancers of alpha synuclein-mediated toxicity
